Results reported in PubChem BioAssay (NCI).
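Five concentrations, 48 hours, 96-well plates. TGI: total growth inhibition.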

Assays:
Assay in all cases: NCI tumour cell line growth inhibition, 48 h
[1] = system: SK-MEL-5 melanoma
[2] = system: HL-60(TB) leukemia
[3] = system: MDA-N
[4] = system: HOP-92 NSCLC
[5] = system: CAKI-1 renal
[6] = system: RPMI-8226 leukemia
[7] = system: CCRF-CEM leukemia
[8] = system: 786-0 renal
[9] = system: LOX IMVI melanoma
[10] = system: EKVX NSCLC
[11] = system: NCI-H23 lung
[12] = system: DU-145 prostate
[13] = system: SF-539 CNS
[14] = system: OVCAR-4 ovarian
[15] = system: SF-268 CNS
[16] = system: SN12C renal
[17] = system: COLO 205 colon
[18] = system: SK-MEL-28 melanoma
[19] = system: SK-OV-3 ovarian
[20] = system: U251 CNS
[21] = system: A549 NSCLC
[22] = system: KM12 colon
[23] = system: K-562 leukemia
[24] = system: SNB-75 CNS
[25] = system: MCF7 breast
[26] = system: A498 renal
[27] = system: OVCAR-5 ovarian
[28] = system: NCI-H226 lung
[29] = system: MOLT-4 leukemia
[30] = system: HS 578T breast
[31] = system: MALME-3M melanoma
[32] = system: PC-3 prostate
[33] = system: IGROV1 ovarian
[34] = system: M14 melanoma
[35] = system: ACHN renal
[36] = system: RXF 393 renal
[37] = system: HCT-116 colon
[38] = system: NCI-H522 lung
[39] = system: NCI-H460 lung
[40] = system: MDA-MB-435
[41] = system: SNB-19 CNS
[42] = system: HCC-2998 colon
[43] = system: SR leukemia
[44] = system: HT29 colon
[45] = system: TK-10 renal
[46] = system: BT-549 breast
[47] = system: SK-MEL-2 melanoma
[48] = system: OVCAR-3 ovarian
[49] = system: UACC-257 melanoma
[50] = system: UACC-62 melanoma
[51] = system: MDA-MB-231 breast
[52] = system: NCI/ADR-RES ovarian
[53] = system: HCT-15 colon
[54] = system: T-47D breast
[55] = system: OVCAR-8 ovarian
[56] = system: HOP-62 NSCLC
[57] = system: SF-295 CNS
[58] = system: SW-620 colon
[59] = system: UO-31 renal

With COC1=C(OC)C23CCc4ccc(OC)c(O)c4C2(CCN3)CC1=O (configuration not stated) the TGI [1] was > 100 µM, the TGI [2] was > 100 µM and the TGI [3] was > 100 µM. The TGI [4] was > 100 µM, the TGI [5] was > 100 µM and the TGI [6] was > 100 µM. For the same molecule, the TGI [7] was > 100 µM, the TGI [8] was > 100 µM and the TGI [9] was > 100 µM. For the same molecule, the TGI [10] was > 100 µM, the TGI [11] was > 100 µM and the TGI [12] was > 100 µM. The TGI [13] was > 100 µM, the TGI [14] was > 100 µM and the TGI [15] was > 100 µM. The TGI [16] was > 100 µM, the TGI [17] was > 100 µM and the TGI [18] was > 100 µM. The TGI [19] was > 100 µM, the TGI [20] was > 100 µM and the TGI [21] was > 100 µM. For the same molecule, the TGI [22] was > 100 µM, the TGI [23] was > 100 µM and the TGI [24] was > 100 µM. For the same molecule, the TGI [25] was > 100 µM, the TGI [26] was > 100 µM and the TGI [27] was > 100 µM. The TGI [28] was > 100 µM, the TGI [29] was > 100 µM and the TGI [30] was > 100 µM. The TGI [31] was > 100 µM, the TGI [32] was > 100 µM and the TGI [33] was > 100 µM. The TGI [34] was > 100 µM, the TGI [35] was > 100 µM and the TGI [36] was > 100 µM. For the same molecule, the TGI [37] was > 100 µM, the TGI [38] was > 100 µM and the TGI [39] was > 100 µM. For the same molecule, the TGI [40] was > 100 µM, the TGI [41] was > 100 µM and the TGI [42] was > 100 µM. The TGI [43] was > 100 µM, the TGI [44] was > 100 µM and the TGI [45] was > 100 µM. For the same molecule, the TGI [46] was > 100 µM, the TGI [47] was > 100 µM and the TGI [48] was > 100 µM. The TGI [49] was > 100 µM, the TGI [50] was > 100 µM and the TGI [51] was > 100 µM. The TGI [52] was > 100 µM, the TGI [53] was > 100 µM and the TGI [54] was > 100 µM. The TGI [55] was > 100 µM, the TGI [56] was > 100 µM and the TGI [57] was > 100 µM. For the same molecule, the TGI [58] was > 100 µM.

For C=C(C)C(CC=C(C)C)Cc1c(O)cc(OC)c2c1OC(c1ccc(O)cc1O)C(O)C2=O (configuration not stated), the TGI [1] was 33.1 µM, the TGI [2] was > 100 µM and the TGI [3] was 28.1 µM. The TGI [4] was 28 µM, the TGI [5] was 26.6 µM and the TGI [6] was > 100 µM. For the same molecule, the TGI [7] was > 100 µM, the TGI [8] was 32.3 µM and the TGI [9] was 36.1 µM. The TGI [10] was 31.1 µM, the TGI [11] was 33.6 µM and the TGI [12] was 32.4 µM. It also gave a TGI [13] of 31.4 µM, a TGI [14] of 38.4 µM and a TGI [15] of 61.1 µM. The TGI [16] was 35.2 µM, the TGI [17] was 30 µM and the TGI [18] was 56.2 µM. For the same molecule, the TGI [19] was 30.5 µM, the TGI [20] was 27.6 µM and the TGI [21] was 39.4 µM. The TGI [22] was 24.6 µM, the TGI [23] was > 100 µM and the TGI [24] was 31.5 µM. The TGI [25] was 27 µM, the TGI [26] was 30.7 µM and the TGI [27] was 32.4 µM. The TGI [28] was 44.7 µM, the TGI [29] was > 100 µM and the TGI [30] was 79.4 µM. For the same molecule, the TGI [31] was 31.8 µM, the TGI [32] was 26.3 µM and the TGI [33] was 28.1 µM. For the same molecule, the TGI [34] was 36.5 µM, the TGI [35] was 43.2 µM and the TGI [36] was 43.6 µM. For the same molecule, the TGI [37] was 34.5 µM, the TGI [38] was 34.2 µM and the TGI [39] was 33.9 µM. It also gave a TGI [40] of 35.9 µM, a TGI [41] of 29.3 µM and a TGI [42] of 30.6 µM. The TGI [43] was > 100 µM, the TGI [44] was 38.2 µM and the TGI [45] was 38.4 µM. For the same molecule, the TGI [46] was 28.5 µM, the TGI [47] was 34.7 µM and the TGI [48] was 34.8 µM. For the same molecule, the TGI [49] was 32.1 µM, the TGI [50] was 36.4 µM and the TGI [51] was 34.1 µM. For the same molecule, the TGI [52] was 55.8 µM, the TGI [53] was 31.1 µM and the TGI [54] was 32.4 µM. The TGI [55] was 31.2 µM, the TGI [56] was 31 µM and the TGI [57] was 28.2 µM. The TGI [59] was 29.5 µM and the TGI [58] was 30.3 µM.

Clc1ccc2oc(CCC3CCCCC3)nc2c1 was tested, and the TGI [1] was 35 µM, the TGI [2] was 42.6 µM and the TGI [3] was > 100 µM. For the same molecule, the TGI [4] was 84.4 µM, the TGI [5] was 77.7 µM and the TGI [6] was > 100 µM. For the same molecule, the TGI [7] was 70.8 µM, the TGI [8] was > 100 µM and the TGI [9] was 25.2 µM. The TGI [10] was 82.9 µM, the TGI [11] was 98.5 µM and the TGI [12] was > 100 µM. For the same molecule, the TGI [13] was > 100 µM, the TGI [14] was > 100 µM and the TGI [15] was > 100 µM. The TGI [16] was 48.6 µM, the TGI [17] was 50.2 µM and the TGI [18] was > 100 µM. The TGI [19] was 62.3 µM, the TGI [20] was 43.2 µM and the TGI [21] was > 100 µM. For the same molecule, the TGI [22] was 70.7 µM, the TGI [23] was > 100 µM and the TGI [24] was 58.1 µM. The TGI [25] was 51.3 µM, the TGI [26] was 82.3 µM and the TGI [27] was > 100 µM. The TGI [28] was 57.1 µM, the TGI [29] was 60.7 µM and the TGI [30] was > 100 µM. For the same molecule, the TGI [31] was > 100 µM, the TGI [32] was > 100 µM and the TGI [34] was > 100 µM. The TGI [35] was > 100 µM, the TGI [36] was 45.1 µM and the TGI [37] was > 100 µM. It also gave a TGI [38] of 61.2 µM, a TGI [39] of 59.6 µM and a TGI [40] of 94.4 µM. For the same molecule, the TGI [41] was > 100 µM, the TGI [42] was 48.3 µM and the TGI [43] was 61.5 µM. The TGI [44] was 83.8 µM, the TGI [45] was > 100 µM and the TGI [46] was > 100 µM. It also gave a TGI [47] of 39.1 µM, a TGI [48] of 36.1 µM and a TGI [49] of 79.3 µM. The TGI [50] was > 100 µM, the TGI [51] was > 100 µM and the TGI [52] was > 100 µM. For the same molecule, the TGI [53] was 69.2 µM, the TGI [54] was 81.7 µM and the TGI [55] was > 100 µM. It also gave a TGI [56] of 72.8 µM, a TGI [57] of 56.2 µM and a TGI [59] of 81.8 µM. The TGI [58] was > 100 µM.

For CC(C)(C)N/N=C(\C(=O)Nc1ccc([N+](=O)[O-])cc1[N+](=O)[O-])c1nc2ccc([N+](=O)[O-])cc2[nH]c1=O, the TGI [1] was > 100 µM, the TGI [2] was > 100 µM and the TGI [3] was > 100 µM. For the same molecule, the TGI [4] was > 100 µM, the TGI [5] was > 100 µM and the TGI [6] was > 100 µM. For the same molecule, the TGI [7] was > 100 µM, the TGI [8] was > 100 µM and the TGI [9] was > 100 µM. For the same molecule, the TGI [10] was > 100 µM, the TGI [11] was > 100 µM and the TGI [12] was > 100 µM. The TGI [13] was > 100 µM, the TGI [14] was > 100 µM and the TGI [15] was > 100 µM. The TGI [16] was > 100 µM, the TGI [17] was > 100 µM and the TGI [18] was > 100 µM. The TGI [19] was > 100 µM, the TGI [20] was > 100 µM and the TGI [21] was > 100 µM. For the same molecule, the TGI [22] was > 100 µM, the TGI [23] was > 100 µM and the TGI [24] was > 100 µM. For the same molecule, the TGI [25] was > 100 µM, the TGI [26] was > 100 µM and the TGI [27] was > 100 µM. For the same molecule, the TGI [28] was > 100 µM, the TGI [29] was > 100 µM and the TGI [30] was > 100 µM. The TGI [31] was > 100 µM, the TGI [32] was > 100 µM and the TGI [33] was > 100 µM. For the same molecule, the TGI [34] was > 100 µM, the TGI [35] was > 100 µM and the TGI [36] was > 100 µM. The TGI [37] was > 100 µM, the TGI [38] was > 100 µM and the TGI [39] was > 100 µM. The TGI [40] was > 100 µM, the TGI [41] was > 100 µM and the TGI [42] was > 100 µM. The TGI [43] was > 100 µM, the TGI [44] was > 100 µM and the TGI [46] was > 100 µM. For the same molecule, the TGI [47] was > 100 µM, the TGI [48] was > 100 µM and the TGI [49] was > 100 µM. The TGI [50] was > 100 µM, the TGI [51] was > 100 µM and the TGI [52] was > 100 µM. The TGI [53] was > 100 µM, the TGI [54] was > 100 µM and the TGI [55] was > 100 µM. The TGI [57] was > 100 µM, the TGI [59] was > 100 µM and the TGI [58] was > 100 µM.
